Reference: ChEMBL document CHEMBL5365447, “Pronucleotides of 2',3'-Dideoxy-2',3'-Didehydrothymidine as Potent Anti-HIV Compounds” (J Med Chem, 2023)
Calls of active or inactive are those of the source. The rule behind the calls is not given here.

What was measured:
[1] = Chemical stability of the compound in phosphate buffer assessed as half life at pH 7.3 by HPLC analysis; type: physicochemical
[2] = Prodrug conversion in human CEM/0 cell extract assessed as ((2S,5R)-5-(5-methyl-2,4-dioxo-3,4-dihydropyrimidin-1(2H)-yl)-2,5-dihydrofuran-2-yl)methyl dihydrogen phosphate formation by HPLC analysis; type: ADME; settings: ccrf-cem
[3] = system: Human immunodeficiency virus 2; experiment: Antiviral activity against HIV-2 ROD infected in wild-type human CEM/0 cells assessed as inhibition of virus-induced cytopathic effect incubated for 4 to 5 days by light microscopic analysis; type: functional, organism-based; settings: Human immunodeficiency virus 2, ROD, CCRF-CEM
[4] = biological target: T1, DNA polymerase alpha catalytic subunit (Homo sapiens) (UniProt P09884); experiment: Substrate activity at human DNA polymerase alpha measured after 4 hrs by electrophoresis based primer extension assay
T1 sequence (whole entry): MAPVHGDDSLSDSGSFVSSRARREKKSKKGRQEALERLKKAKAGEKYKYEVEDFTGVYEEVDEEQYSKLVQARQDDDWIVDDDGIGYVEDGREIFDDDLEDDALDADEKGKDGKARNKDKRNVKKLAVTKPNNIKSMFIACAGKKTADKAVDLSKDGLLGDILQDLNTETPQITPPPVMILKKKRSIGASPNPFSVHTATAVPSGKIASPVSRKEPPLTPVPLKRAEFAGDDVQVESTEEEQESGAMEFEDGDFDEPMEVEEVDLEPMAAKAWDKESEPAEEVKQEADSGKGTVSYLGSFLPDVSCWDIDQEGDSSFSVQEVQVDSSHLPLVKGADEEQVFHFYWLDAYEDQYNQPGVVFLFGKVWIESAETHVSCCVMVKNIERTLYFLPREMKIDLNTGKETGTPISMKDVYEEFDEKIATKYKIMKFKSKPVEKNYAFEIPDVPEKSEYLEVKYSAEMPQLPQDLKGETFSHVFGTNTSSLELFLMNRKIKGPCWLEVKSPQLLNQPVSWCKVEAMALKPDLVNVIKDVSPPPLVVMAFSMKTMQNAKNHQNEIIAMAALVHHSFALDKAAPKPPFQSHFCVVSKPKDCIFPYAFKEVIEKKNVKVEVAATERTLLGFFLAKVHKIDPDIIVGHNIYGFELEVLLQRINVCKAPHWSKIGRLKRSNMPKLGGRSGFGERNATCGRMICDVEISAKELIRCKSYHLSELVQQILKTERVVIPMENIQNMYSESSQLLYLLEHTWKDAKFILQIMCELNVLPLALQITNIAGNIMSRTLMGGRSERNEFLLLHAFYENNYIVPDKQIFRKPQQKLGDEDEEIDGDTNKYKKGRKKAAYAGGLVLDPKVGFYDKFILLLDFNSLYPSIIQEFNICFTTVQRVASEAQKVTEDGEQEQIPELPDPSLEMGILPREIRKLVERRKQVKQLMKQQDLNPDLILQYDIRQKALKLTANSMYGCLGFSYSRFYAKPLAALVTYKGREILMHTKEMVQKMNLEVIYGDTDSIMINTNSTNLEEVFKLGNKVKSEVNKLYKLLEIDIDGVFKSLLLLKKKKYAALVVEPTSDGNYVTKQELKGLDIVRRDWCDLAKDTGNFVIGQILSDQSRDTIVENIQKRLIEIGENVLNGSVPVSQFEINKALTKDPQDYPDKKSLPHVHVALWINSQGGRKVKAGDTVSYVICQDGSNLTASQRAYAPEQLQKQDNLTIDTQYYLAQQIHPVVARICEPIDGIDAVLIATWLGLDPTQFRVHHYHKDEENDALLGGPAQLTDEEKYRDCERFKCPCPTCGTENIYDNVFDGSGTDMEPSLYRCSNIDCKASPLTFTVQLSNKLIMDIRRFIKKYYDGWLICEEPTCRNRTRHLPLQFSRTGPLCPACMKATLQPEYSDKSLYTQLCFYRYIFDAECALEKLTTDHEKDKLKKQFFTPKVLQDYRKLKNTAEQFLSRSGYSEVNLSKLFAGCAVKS

[5] = biological target: DNA polymerase beta (Homo sapiens) (UniProt P06746); experiment: Substrate activity at human DNA polymerase beta measured after 4 hrs by electrophoresis based primer extension assay
[6] = biological target: T2, DNA polymerase subunit gamma-1 (Homo sapiens) (UniProt P54098); experiment: Substrate activity at human DNA polymerase gamma measured after 4 hrs by electrophoresis based primer extension assay
T2 sequence (whole entry): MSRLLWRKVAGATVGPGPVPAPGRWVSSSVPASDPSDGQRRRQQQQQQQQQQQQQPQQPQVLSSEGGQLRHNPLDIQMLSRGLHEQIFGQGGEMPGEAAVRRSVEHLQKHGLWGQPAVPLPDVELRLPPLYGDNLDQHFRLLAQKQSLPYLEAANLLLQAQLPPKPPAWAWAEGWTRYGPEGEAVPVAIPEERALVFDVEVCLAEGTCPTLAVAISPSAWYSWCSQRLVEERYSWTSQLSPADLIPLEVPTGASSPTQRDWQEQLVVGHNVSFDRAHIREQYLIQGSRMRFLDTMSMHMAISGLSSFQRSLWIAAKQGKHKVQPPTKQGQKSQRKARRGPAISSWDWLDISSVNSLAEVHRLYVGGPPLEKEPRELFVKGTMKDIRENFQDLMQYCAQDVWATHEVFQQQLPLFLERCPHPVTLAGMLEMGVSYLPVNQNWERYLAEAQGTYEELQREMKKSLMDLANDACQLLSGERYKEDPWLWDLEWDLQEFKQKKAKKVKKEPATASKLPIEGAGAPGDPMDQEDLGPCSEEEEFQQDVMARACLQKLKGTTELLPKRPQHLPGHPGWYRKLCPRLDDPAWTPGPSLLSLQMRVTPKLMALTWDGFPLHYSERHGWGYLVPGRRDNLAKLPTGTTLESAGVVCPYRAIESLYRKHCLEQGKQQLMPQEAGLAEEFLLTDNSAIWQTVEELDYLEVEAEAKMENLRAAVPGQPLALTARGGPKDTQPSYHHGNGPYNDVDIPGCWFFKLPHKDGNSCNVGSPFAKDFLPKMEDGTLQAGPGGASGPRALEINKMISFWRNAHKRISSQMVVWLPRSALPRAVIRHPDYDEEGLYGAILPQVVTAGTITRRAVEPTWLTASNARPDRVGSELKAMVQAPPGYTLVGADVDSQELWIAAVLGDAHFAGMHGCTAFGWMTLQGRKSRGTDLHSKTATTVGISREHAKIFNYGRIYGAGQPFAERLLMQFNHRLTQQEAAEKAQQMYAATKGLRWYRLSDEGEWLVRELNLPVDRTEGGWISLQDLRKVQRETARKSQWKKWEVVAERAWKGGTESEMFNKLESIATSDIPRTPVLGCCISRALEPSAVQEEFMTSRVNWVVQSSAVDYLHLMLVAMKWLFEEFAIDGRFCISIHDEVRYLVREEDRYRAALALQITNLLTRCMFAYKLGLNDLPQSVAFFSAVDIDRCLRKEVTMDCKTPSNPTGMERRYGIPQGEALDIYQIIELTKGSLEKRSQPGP

[7] = system: Human immunodeficiency virus 2; experiment: Potency index, ratio of 3'-deoxy-2',3'-dehydrothymidine EC50 to compound EC50 for antiviral activity against HIV-2 ROD infected in wild-type human CEM/0 cells; type: functional

With `CCCCCCCCCCCCCCCCCCP(=O)(OC)OP(=O)(O)OP(=O)(O)OC[C@@H]1C=C[C@H](n2cc(C)c(=O)[nH]c2=O)O1.N.N` (some centres not stated) the half-life [1] was 27.2 days, the Drug metabolism [2] was “Metabolite_Detected” and the EC50 [3] was 80 nM. The Activity [4] was “inactive”, the Activity [5] was “inactive” and the Activity [6] was “inactive”. For the same compound, the “Ratio EC50” value [7] was 4.
